# Experiment: Cytotoxicity against human HepG2(2.2.15) cells after 3 day
# Assay type: functional, cell-based
# Conditions: HepG2 2.2.15, 72 h
smiles,measurement,value
COc1cccc2c1C(=O)c1c(O)c3c(c(O)c1C2=O)C[C@@](O)(C(=O)CO)C[C@@H]3O[C@H]1C[C@H](N)[C@H](O)[C@H](C)O1 [DOXORUBICIN],IC50,0.45 µg/mL

# Reference: ChEMBL document CHEMBL1144147, “New annonaceous acetogenins from Rollinia mucosa” (J Nat Prod, 1999)
